Laboratory results: article PMC12113998, “Exploring Multivalent Architectures for Binding and Stabilization of N-Acetylgalactosamine 6-Sulfatase” (Molecules, 2025)
Marks after values point to notes of the source that are not given here.

Target: T1, N-acetylgalactosamine-6-sulfatase (GALNS) (Homo sapiens, UniProt P34059)
T1 construct: Isolated leukocytes were disrupted by sonication; from tissue; host or cells: human leukocytes from healthy donors (sonicated homogenate)
T1 sequence (P34059 27-522): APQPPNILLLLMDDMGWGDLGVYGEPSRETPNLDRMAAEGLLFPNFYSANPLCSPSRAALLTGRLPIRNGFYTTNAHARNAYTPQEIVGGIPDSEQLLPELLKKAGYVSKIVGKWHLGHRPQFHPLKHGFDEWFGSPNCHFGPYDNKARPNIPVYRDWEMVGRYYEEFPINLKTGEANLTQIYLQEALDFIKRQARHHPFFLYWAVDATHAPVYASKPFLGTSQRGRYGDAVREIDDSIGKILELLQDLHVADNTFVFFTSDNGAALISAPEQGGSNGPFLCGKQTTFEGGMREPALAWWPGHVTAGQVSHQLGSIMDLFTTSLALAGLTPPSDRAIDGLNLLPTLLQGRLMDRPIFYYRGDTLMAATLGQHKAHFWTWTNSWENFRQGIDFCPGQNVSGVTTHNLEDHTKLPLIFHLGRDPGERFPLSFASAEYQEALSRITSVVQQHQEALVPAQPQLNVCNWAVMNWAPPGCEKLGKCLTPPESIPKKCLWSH
Experiment: GALNS inhibition in leukocyte homogenate from healthy donors (4-methylumbelliferyl-β-galactoside-6-sulfate substrate, fluorescence)
Format: biochemical
Method: A preliminary biological screening of the newly synthesized multivalent compounds at 1 mM inhibitor concentration was performed against GALNS in leukocytes isolated from healthy donors. Enzymatic assays were performed in triplicate by incubating leukocyte homogenate, compound, and substrate (4-methylumbelliferyl-β-galactoside-6-sulfate.Na) in Na-acetate/acetic acid buffer (pH 4.3) at 37 °C for 17 h, followed by the addition of β-galactosidase from Aspergillus oryzae and further incubation to release 4-methylumbelliferone. The fluorescence was measured, and the inhibition percentages were calculated relative to the control. The results are summarized in Table 1, Table 2, Table 3 and Table 4, along with new inhibition data toward GALNS of multivalent inhibitors whose synthesis was reported previously by our group (23, 26, 30, 51, 52–54). For compounds showing poor to negligible inhibitory activity, only the GALNS inhibition percentage at 1 mM was reported.
Enzymatic assays towards human GALNS in leukocytes isolated from healthy donors.
All experiments on biological materials were performed in accordance with the ethical standards of the institutional research committee and with the 1964 Helsinki Declaration and its later amendments. In keeping with ethical guidelines, all blood and cell samples were obtained for storage and analysed only after written informed consent of the patients (and/or their family members) was obtained, using a form approved by the local Ethics Committee (Assigned code: Lysolate “Late -onset Lysosomal Storage Disorders (LSDs) in the differential diagnosis of neurodegenerative diseases: development of new diagnostic procedures and focus on potential pharmacological chaperones (PCs).” Project ID code: 16774_bio, 5 May 2020, Comitato Etico Regionale per la Sperimentazione Clinica della Regione Toscana, Area Vasta Centro, Florence, Italy). Control and patient samples were anonymized and used only for research purposes.
A preliminary biological screening of compounds at 1 mM was performed towards GALNS in leukocytes isolated from healthy donors (controls). Isolated leukocytes were disrupted by sonication, and a micro BCA protein assay kit (Sigma–Aldrich) was used to determine the total protein amount for the enzymatic assay, according to the manufacturer instructions. Enzyme activity was measured by setting the reaction in 0.2 mL tubes and performing the experiments in triplicates as follows. Compound solution (3 µL), 4.29 μg/μL leukocyte homogenate 1:5 (7 μL) and 20 µL of 4-methylumbelliferyl-β-galactoside-6-sulfate.Na substrate solution (6.66mM) in Na-Acetate/acetic acid buffer (0.1 M/0.1 M, pH 4.3) containing 0.1 M NaCl, 0.02% (w/v) NaN3 and 5 mM Pb-acetate were incubated for 17 h at 37 °C. After step one, the tubes were placed on an ice cooler and the reaction was stopped by addition of 5 µL of Na-phosphate buffer (0.9 M, pH 4.3) containing 0.02 % (w/v) of NaN3 and by efficient mixing with vortex. Then, 10 µL of β-galactosidase from Aspergillus oryzae (β-Gal-A-10U) were added to each sample and samples were incubated for 2 h at 37°C. At the end of this period the tubes were placed on an ice cooler and the samples were transferred in a cooled flat –bottomed 96 well plate and the reaction was immediately stopped with 2 00 µL of NaHCO3/Na2CO3 buffer (0.5 M/0.5 M pH 10.7) containing 0.025% (w/v) of Triton X -100. Fluorescence was measured in a SpectraMax M2 microplate reader (Molecular-Devices) using a 365 nm excitation wavelength and a 435 nm emission wavelength. Percentage of GALNS inhibition was given with respect to the control (without compound).
Experiments were performed in triplicate, and the mean ± S. D. was calculated.
Figure S52. GALNS activity in the absence Figure S53. GALNS activity in the absence (Ctrl) and presence of scaffold 12 at a 1 mM (Ctrl) and presence of the new multivalent […]
The corresponding calculated inhibition of the main text) at a 1 mM concentration in […]

[1] = calculated considering 34 as the monovalent reference compound

Compound: O=C(NC(COCc1cn(CCCCCCN2CC(O)C(O)C2CO)nn1)(COCc1cn(CCCCCCN2CC(O)C(O)C2CO)nn1)COCc1cn(CCCCCCN2CC(O)C(O)C2CO)nn1)c1cc(C(=O)NC(COCc2cn(CCCCCCN3CC(O)C(O)C3CO)nn2)(COCc2cn(CCCCCCN3CC(O)C(O)C3CO)nn2)COCc2cn(CCCCCCN3CC(O)C(O)C3CO)nn2)cc(C(=O)NC(COCc2cn(CCCCCCN3CC(O)C(O)C3CO)nn2)(COCc2cn(CCCCCCN3CC(O)C(O)C3CO)nn2)COCc2cn(CCCCCCN3CC(O)C(O)C3CO)nn2)c1 (stereo not shown) [Compound 1]
- rp (relative potency) [1]: 83
- rp (relative potency) (calculated with respect to the scaffold 38): 1.5

Compound: OCC1C(O)C(O)CN1CCCCCCn1cc(COCC(COCc2cn(CCCCCCN3CC(O)C(O)C3CO)nn2)(COCc2cn(CCCCCCN3CC(O)C(O)C3CO)nn2)NCc2cc(CNC(COCc3cn(CCCCCCN4CC(O)C(O)C4CO)nn3)(COCc3cn(CCCCCCN4CC(O)C(O)C4CO)nn3)COCc3cn(CCCCCCN4CC(O)C(O)C4CO)nn3)cc(CNC(COCc3cn(CCCCCCN4CC(O)C(O)C4CO)nn3)(COCc3cn(CCCCCCN4CC(O)C(O)C4CO)nn3)COCc3cn(CCCCCCN4CC(O)C(O)C4CO)nn3)c2)nn1 (stereo not shown) [Compound 36]
- rp (relative potency) [1]: 139 ^[b]
- IC50 (human leukocyte extracts): 28 ± 5 µM
